Columns and labels:
DGAT1 enzyme = molecular target: T1, DGAT1 enzyme (Homo sapiens, UniProt O75907); experiment: DGAT1 inhibitory activity test; type: biochemical; conditions: test compound concentration of 0.05 μg/ml; read-out: Inhibitory Rate
T1 construct: made in house
T1 sequence (O75907 1-488): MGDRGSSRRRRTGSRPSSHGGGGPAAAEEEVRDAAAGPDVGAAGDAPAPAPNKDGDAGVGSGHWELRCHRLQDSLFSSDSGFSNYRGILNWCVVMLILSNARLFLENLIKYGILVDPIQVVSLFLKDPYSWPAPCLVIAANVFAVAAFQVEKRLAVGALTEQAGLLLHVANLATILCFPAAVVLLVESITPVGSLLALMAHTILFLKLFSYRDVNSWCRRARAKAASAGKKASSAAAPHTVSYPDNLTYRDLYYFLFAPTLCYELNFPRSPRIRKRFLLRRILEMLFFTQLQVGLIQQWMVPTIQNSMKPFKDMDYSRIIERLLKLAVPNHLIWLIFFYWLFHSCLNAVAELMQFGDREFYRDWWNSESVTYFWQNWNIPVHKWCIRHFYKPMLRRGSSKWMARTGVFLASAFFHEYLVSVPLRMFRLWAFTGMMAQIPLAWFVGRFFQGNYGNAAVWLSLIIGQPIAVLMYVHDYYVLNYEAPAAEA
Protocol: DGAT1 enzyme was prepared and stored according to the method described in US2007/0249620.
(2) DGAT1 Inhibitory Activity Test
A reaction solution having the following composition was incubated at room temperature (23° C.) for 30 minutes: 175 mM Tris-HCl (pH 8.0), 8 mM MgCl2, 1 mg/ml BSA, 0.3 mM 1,2-dioleoyl-sn-glycerol (10-fold concentration of EtOH solution, 10% added), 10 μM [^14C]-oleoyl-CoA (approximately 50 mCi/mmol), 0.5% Triton X-100, the DGAT1 enzyme (10 μg) obtained in Test Example 1(1), and a test compound or vehicle (DMSO/MeOH, 7:3 solution, 5% added), […] in total. A reaction stop solution ([…] consisting of isopropanol/1-heptane/water (80:20:2, v/v/v) was added to the reaction solution and stirred. Subsequently, water (30 μl) and 1-heptane (100 μl) were added thereto and stirred. The 1-heptane layer (50 μl) was spotted onto a TLC plate and developed with a developing solvent consisting of 1-hexane/diethyl ether/acetic acid (85:15:1, v/v/v). The radioactivity of the triglyceride fraction was quantified using BAS2000 Bio Image Analyzer (FUJIFILM) and compared with the control. The inhibitory activity of the test compound was calculated according to the formula shown below. In this context, the radioactivity at no reaction (0 minute incubation) was used as background. Inhibitory Rate=100−[(Radioactivity of sample supplemented with test compound)−(Background)]/[(Radioactivity of control)−(Background)]×100

Male C57BL/6N mice = experiment: Triglyceride absorption suppression after fat loading (in vivo DGAT1 inhibitory effect); conditions: Mus musculus, po; dose of 10 mg/kg or lower, orally administered, mice fasted overnight, plasma triglyceride after fat loading; read-out: Triglyceride absorption suppressive activity
Protocol: The DGAT1 enzyme is important for the digestion and absorption of triglycerides, and the inhibition of DGAT1 in the small intestine suppresses the absorption of triglycerides. The in vivo activity of its DGAT1 inhibitory effect was evaluated with the suppressed absorption of triglycerides after fat loading as an index. Male C57BL/6N mice (7-12 weeks old, body weight: 17-25 g, Charles River Laboratories Japan Inc.) fasted overnight were assigned to Vehicle group 1, Vehicle group 2, and each test compound group, to which a vehicle (0.5% methylcellulose) or each test compound (1 to 10 mg/kg) suspended in vehicle was orally administered (5 mL/kg). After a given time, a lipoprotein lipase inhibitor (Pluronic-F127: Sigma-Aldrich Corp., 1 g/kg, 20% by weight dissolved in saline) was intraperitoneally administered (5 mL/kg) to each group. Immediately thereafter, distilled water for the Vehicle group 1 or a 20% fat-containing emulation (Intralipid 20%: TERUMO CORP., Japan) for the Vehicle group 2 and the compound groups were orally administered thereto (0.2 mL/mouse). After a given time of 1 to 4 hours after administration, blood was collected from the tail vein or the right ventricle, and plasma was immediately separated and collected. Then, the triglyceride concentration in plasma was measured using a commercially available kit (Triglyceride E-Test Wako: Wako Pure Chemical Industries, Ltd.). In this method, the administration of the lipoprotein lipase inhibitor suppresses the hydrolysis of triglycerides in the blood such that the triglycerides are accumulated in the blood. These triglycerides are derived from two origins: exogenous triglycerides absorbed in the gastrointestinal tract and endogenous triglycerides released from the liver. The triglyceride absorption suppressive activity of each test compound was calculated based on the equation shown below by removing the influence of the endogenous triglycerides. In this context, each test compound was separately confirmed to have no influence on the concentration of the endogenous triglycerides.
Triglyceride absorption suppressive activity (%)=100−[(Triglyceride concentration of each test compound group)−(Triglyceride concentration of Vehicle group 1)]/[(Triglyceride concentration of Vehicle group 2)−(Triglyceride concentration of Vehicle group 1)]×100

With `O=C(O)C[C@H]1CC[C@H](OC(=O)N2CCc3cc(NC(=O)Nc4ccccc4F)ccc3C2)C1` (relative stereo) [Example 7, trans-6-[3-(2-fluoro-phenyl)-ureido]-3,4-dihydro-1H-isoquinoline-2-carboxylic acid 3-carboxymethyl-cyclopentyl ester] the inhibition at 0.05 µg/mL (DGAT1 enzyme) was ≥ 50% and the inhibition in vivo at up to 10 mg/kg (Male C57BL/6N mice) was ≥ 60%.
In the case of `C[C@H]1C[C@H](CC(=O)O)CC[C@H]1OC(=O)N1CCc2cc(NC(=O)Nc3ccccc3F)ccc2C1` (relative stereo) [Example 15, 6-[3-(2-fluoro-phenyl)-ureido]-3,4-dihydro-1H-isoquinoline-2-carboxylic acid t-4-carboxymethyl-c-2-methyl-r-1-cyclohexyl ester], the inhibition at 0.05 µg/mL (DGAT1 enzyme) is reported as ≥ 50% and the inhibition in vivo at up to 10 mg/kg (Male C57BL/6N mice) is reported as ≥ 60%.
In the case of `C[C@@H]1C[C@H](CC(=O)O)CC[C@H]1OC(=O)N1CCc2cc(NC(=O)Nc3ccccc3F)ccc2C1` (relative stereo) [Example 16, 6-[3-(2-fluoro-phenyl)-ureido]-3,4-dihydro-1H-isoquinoline-2-carboxylic acid t-4-carboxymethyl-t-2-methyl-r-1-cyclohexyl ester], the inhibition at 0.05 µg/mL (DGAT1 enzyme) is reported as ≥ 50% and the inhibition in vivo at up to 10 mg/kg (Male C57BL/6N mice) is reported as ≥ 60%.
For `CCOc1cccc(NC(=O)Nc2ccc3c(c2)CCN(C(=O)O[C@@H]2CC[C@@H](CC(=O)O)C[C@H]2C)C3)c1` (relative stereo) [Example 99, 6-[3-(3-ethoxy-phenyl)-ureido]-3,4-dihydro-1H-isoquinoline-2-carboxylic acid t-4-carboxymethyl-t-2-methyl-r-1-cyclohexyl ester], the inhibition at 0.05 µg/mL (DGAT1 enzyme) was ≥ 50% and the inhibition in vivo at up to 10 mg/kg (Male C57BL/6N mice) was ≥ 60%.
For `CCOc1cccc(NC(=O)Nc2ccc3c(c2)CCN(C(=O)O[C@@H]2CC[C@@H](CC(=O)O)C[C@@H]2C)C3)c1` (relative stereo) [Example 100, 6-[3-(3-ethoxy-phenyl)-ureido]-3,4-dihydro-1H-isoquinoline-2-carboxylic acid t-4-carboxymethyl-c-2-methyl-r-1-cyclohexyl ester], the inhibition at 0.05 µg/mL (DGAT1 enzyme) was ≥ 50% and the inhibition in vivo at up to 10 mg/kg (Male C57BL/6N mice) was ≥ 60%.
In the case of `COc1cccc(NC(=O)Nc2ccc3c(c2)CCN(C(=O)O[C@@H]2CC[C@@H](CC(=O)O)C[C@H]2C)C3)c1` (relative stereo) [Example 101, 6-[3-(3-methoxy-phenyl)-ureido]-3,4-dihydro-1H-isoquinoline-2-carboxylic acid t-4-carboxymethyl-t-2-methyl-r-1-cyclohexyl ester], the inhibition at 0.05 µg/mL (DGAT1 enzyme) is reported as ≥ 50% and the inhibition in vivo at up to 10 mg/kg (Male C57BL/6N mice) is reported as ≥ 60%.
For `O=C(O)C[C@H]1CC[C@H](OC(=O)N2CCc3cc(NC(=O)Nc4ccccc4F)ccc3C2)CC1` [Example 2, trans-6-[3-(2-fluoro-phenyl)-ureido]-3,4-dihydro-1H-isoquinoline-2-carboxylic acid 4-carboxymethyl-cyclohexyl ester], the inhibition at 0.05 µg/mL (DGAT1 enzyme) was ≥ 50% and the inhibition in vivo at up to 10 mg/kg (Male C57BL/6N mice) was ≥ 60%.
`O=C(O)CC1CCC(NC(=O)N2CCc3cc(NC(=O)Nc4ccccc4F)ccc3C2)CC1` (stereo not shown) [Example 5, [4-({6-[3-(2-fluoro-phenyl)-ureido]-3,4-dihydro-1H-isoquinoline-2-carbonyl}-amino)-cyclohexyl]-acetic acid] was tested, and the inhibition at 0.05 µg/mL (DGAT1 enzyme) was ≥ 50% and the inhibition in vivo at up to 10 mg/kg (Male C57BL/6N mice) was ≥ 60%.
For `O=C(Nc1ccc2c(c1)CCN(C(=O)O[C@H]1CC[C@H](C(=O)O)CC1)C2)Nc1ccccc1F` [Example 8, trans-6-[3-(2-fluoro-phenyl)-ureido]-3,4-dihydro-1H-isoquinoline-2-carboxylic acid 4-carboxy-cyclohexyl ester], the inhibition at 0.05 µg/mL (DGAT1 enzyme) was ≥ 50% and the inhibition in vivo at up to 10 mg/kg (Male C57BL/6N mice) was ≥ 60%.
In the case of `O=C(O)CCC1CCC(OC(=O)N2CCc3cc(NC(=O)Nc4ccccc4F)ccc3C2)CC1` (stereo not shown) [Example 10, 6-[3-(2-fluoro-phenyl)-ureido]-3,4-dihydro-1H-isoquinoline-2-carboxylic acid 4-(2-carboxy-ethyl)-cyclohexyl ester], the inhibition at 0.05 µg/mL (DGAT1 enzyme) is reported as ≥ 50% and the inhibition in vivo at up to 10 mg/kg (Male C57BL/6N mice) is reported as ≥ 60%.
In the case of `O=C(O)C=C1CCC(OC(=O)N2CCc3cc(NC(=O)Nc4ccccc4F)ccc3C2)CC1` (stereo not shown) [Example 11, 6-[3-(2-fluoro-phenyl)-ureido]-3,4-dihydro-1H-isoquinoline-2-carboxylic acid 4-carboxymethylene-cyclohexyl ester], the inhibition at 0.05 µg/mL (DGAT1 enzyme) is reported as ≥ 50% and the inhibition in vivo at up to 10 mg/kg (Male C57BL/6N mice) is reported as ≥ 60%.
With `O=C(O)CC1=CCC(OC(=O)N2CCc3cc(NC(=O)Nc4ccccc4F)ccc3C2)CC1` (stereo not shown) [Example 12, 6-[3-(2-fluoro-phenyl)-ureido]-3,4-dihydro-1H-isoquinoline-2-carboxylic acid 4-carboxymethyl-cyclohex-3-enyl-ester] the inhibition at 0.05 µg/mL (DGAT1 enzyme) was ≥ 50% and the inhibition in vivo at up to 10 mg/kg (Male C57BL/6N mice) was ≥ 60%.
In the case of `CC(C)(C(=O)O)[C@H]1CC[C@H](OC(=O)N2CCc3cc(NC(=O)Nc4ccccc4F)ccc3C2)CC1` [Example 13, trans-6-[3-(2-fluoro-phenyl)-ureido]-3,4-dihydro-1H-isoquinoline-2-carboxylic acid 4-(carboxy-1-methyl-ethyl)-cyclohexyl ester], the inhibition at 0.05 µg/mL (DGAT1 enzyme) is reported as ≥ 50% and the inhibition in vivo at up to 10 mg/kg (Male C57BL/6N mice) is reported as ≥ 60%.
For `O=C(O)CC1CCC(CC(=O)N2CCc3cc(NC(=O)Nc4ccccc4F)ccc3C2)CC1` (stereo not shown) [Example 17, [4-(2-{6-[3-(2-fluoro-phenyl)-ureido]-3,4-dihydro-1H-isoquinolin-2-yl}-2-oxoethyl)-cyclohexyl]-acetic acid], the inhibition at 0.05 µg/mL (DGAT1 enzyme) was ≥ 50% and the inhibition in vivo at up to 10 mg/kg (Male C57BL/6N mice) was ≥ 60%.
With `CCOc1cccc(NC(=O)Nc2ccc3c(c2)CCN(C(=O)O[C@H]2CC[C@H](CC(=O)O)CC2)C3)c1` [Example 20, trans-6-[3-(3-ethoxy-phenyl)-ureido]-3,4-dihydro-1H-isoquinoline-2-carboxylic acid 4-carboxymethyl-cyclohexyl ester] the inhibition at 0.05 µg/mL (DGAT1 enzyme) was ≥ 50% and the inhibition in vivo at up to 10 mg/kg (Male C57BL/6N mice) was ≥ 60%.
With `COc1ccccc1NC(=O)Nc1ccc2c(c1)CCN(C(=O)O[C@H]1CC[C@H](CC(=O)O)CC1)C2` [Example 21, trans-6-[3-(2-methoxy-phenyl)-ureido]-3,4-dihydro-1H-isoquinoline-2-carboxylic acid 4-carboxymethyl-cyclohexyl ester] the inhibition at 0.05 µg/mL (DGAT1 enzyme) was ≥ 50% and the inhibition in vivo at up to 10 mg/kg (Male C57BL/6N mice) was ≥ 60%.
In the case of `O=C(Nc1ccc2c(c1)CCN(C(=O)O[C@H]1CC[C@H](CC(=O)OC[C@H](O)CO)CC1)C2)Nc1ccccc1F` [Example 46, trans-6-[3-(2-fluoro-phenyl)-ureido]-3,4-dihydro-1H-isoquinoline-2-carboxylic acid 4-((R)-2,3-dihydroxy-propoxycarbonylmethyl)-cyclohexyl ester], the inhibition in vivo at up to 10 mg/kg (Male C57BL/6N mice) is reported as ≥ 60%.
`CC(C)NC(=O)Nc1ccc2c(c1)CCN(C(=O)O[C@H]1CC[C@H](CC(=O)O)CC1)C2` [Example 81, trans-6-(3-isopropyl-ureido)-3,4-dihydro-1H-isoquinoline-2-carboxylic acid 4-carboxymethyl-cyclohexyl ester] was tested, and the inhibition in vivo at up to 10 mg/kg (Male C57BL/6N mice) was ≥ 60%.
